Assay results from ChEMBL document CHEMBL3390836, “Mannich- and LedererManasse-based analogues of the natural product S-(+)-curcuphenol as cancer proliferation and migration inhibitors” (Medchemcomm, 2012).

Assays:
[1] = Cytotoxicity against human OVCAR4 cells assessed as cell growth at 10 uM after 48 hrs by SRB assay relative to control; assay type: functional; conditions: OVCAR-4, 48 h, read-out: Activity
SF-268 = test: Cytotoxicity against human SF268 cells assessed as cell growth at 10 uM after 48 hrs by SRB assay relative to control; assay type: functional; conditions: SF-268, 48 h, read-out: Activity
HOP-92 = test: Cytotoxicity against human HOP92 cells assessed as cell growth at 10 uM after 48 hrs by SRB assay relative to control; assay type: functional; conditions: HOP-92, 48 h, read-out: Activity
RXF 393 = test: Cytotoxicity against human RXF393 cells assessed as cell growth at 10 uM after 48 hrs by SRB assay relative to control; assay type: functional; conditions: RXF 393, 48 h, read-out: Activity
[2] = Cytotoxicity against human SKOV3 cells assessed as cell growth at 10 uM after 48 hrs by SRB assay relative to control; assay type: functional; conditions: SK-OV-3, 48 h, read-out: Activity
Malme-3M = test: Cytotoxicity against human MALME-3M cells assessed as cell growth at 10 uM after 48 hrs by SRB assay relative to control; assay type: functional; conditions: read-out: Activity
[3] = Cytotoxicity against human OVCAR5 cells assessed as cell growth at 10 uM after 48 hrs by SRB assay relative to control; assay type: functional; conditions: OVCAR-5, 48 h, read-out: Activity
[4] = Cytotoxicity against human NCI-ADR-RES cells assessed as cell growth at 10 uM after 48 hrs by SRB assay relative to control; assay type: functional; conditions: read-out: Activity
MOLT-4 = test: Cytotoxicity against human MOLT4 cells assessed as cell growth at 10 uM after 48 hrs by SRB assay relative to control; assay type: functional; conditions: MOLT-4, 48 h, read-out: Activity
MDA-MB-468 = test: Cytotoxicity against human MDA-MB-468 cells assessed as cell growth at 10 uM after 48 hrs by SRB assay relative to control; assay type: functional; conditions: MDA-MB-468, 48 h, read-out: Activity
[5] = Cytotoxicity against human UO31 cells assessed as cell growth at 10 uM after 48 hrs by SRB assay relative to control; assay type: functional; conditions: UO-31, 48 h, read-out: Activity
MCF7 = test: Growth inhibition of human MCF7 cells after 72 hrs by MTT assay; assay type: functional, cell-based; conditions: MCF7, 72 h
DU-145 = test: Cytotoxicity against human DU145 cells assessed as cell growth at 10 uM after 48 hrs by SRB assay relative to control; assay type: functional; conditions: DU-145, 48 h, read-out: Activity
[6] = Cytotoxicity against human OVCAR8 cells assessed as cell growth at 10 uM after 48 hrs by SRB assay relative to control; assay type: functional; conditions: OVCAR-8, 48 h, read-out: Activity
[7] = Cytotoxicity against human Hs 578T cells assessed as cell growth at 10 uM after 48 hrs by SRB assay relative to control; assay type: functional; conditions: read-out: Activity
HL-60(TB) = test: Cytotoxicity against human HL-60(TB) cells assessed as cell growth at 10 uM after 48 hrs by SRB assay relative to control; assay type: functional; conditions: HL-60, 48 h, read-out: Activity
MDA-MB-231 = test: Growth inhibition of human MDA-MB-231 cells after 72 hrs by MTT assay; assay type: functional, cell-based; conditions: MDA-MB-231, 72 h
SK-MEL-2 = test: Cytotoxicity against human SK-MEL-2 cells assessed as cell growth at 10 uM after 48 hrs by SRB assay relative to control; assay type: functional; conditions: SK-MEL-2, 48 h, read-out: Activity
SW-620 = test: Cytotoxicity against human SW620 cells assessed as cell growth at 10 uM after 48 hrs by SRB assay relative to control; assay type: functional; conditions: SW-620, 48 h, read-out: Activity
NCI-H226 = test: Cytotoxicity against human NCI-H226 cells assessed as cell growth at 10 uM after 48 hrs by SRB assay relative to control; assay type: functional; conditions: NCI-H226, 48 h, read-out: Activity
CAKI-1 = test: Cytotoxicity against human Caki1 cells assessed as cell growth at 10 uM after 48 hrs by SRB assay relative to control; assay type: functional; conditions: CAKI-1, 48 h, read-out: Activity
SR = test: Cytotoxicity against human SR cells assessed as cell growth at 10 uM after 48 hrs by SRB assay relative to control; assay type: functional; conditions: read-out: Activity
NCI-H522 = test: Cytotoxicity against human NCI-H522 cells assessed as cell growth at 10 uM after 48 hrs by SRB assay relative to control; assay type: functional; conditions: NCI-H522, 48 h, read-out: Activity
A498 = test: Cytotoxicity against human A498 cells assessed as cell growth at 10 uM after 48 hrs by SRB assay relative to control; assay type: functional; conditions: A498, 48 h, read-out: Activity
COLO 205 = test: Cytotoxicity against human COLO205 cells assessed as cell growth at 10 uM after 48 hrs by SRB assay relative to control; assay type: functional; conditions: COLO 205, 48 h, read-out: Activity
U-251 = test: Cytotoxicity against human U251 cells assessed as cell growth at 10 uM after 48 hrs by SRB assay relative to control; assay type: functional; conditions: U-251, 48 h, read-out: Activity
SK-MEL-5 = test: Cytotoxicity against human SK-MEL-5 cells assessed as cell growth at 10 uM after 48 hrs by SRB assay relative to control; assay type: functional; conditions: SK-MEL-5, 48 h, read-out: Activity
BT-549 = test: Cytotoxicity against human BT549 cells assessed as cell growth at 10 uM after 48 hrs by SRB assay relative to control; assay type: functional; conditions: BT-549, 48 h, read-out: Activity

Structure (SMILES) | growth at 10 µM [1] [%] | growth at 10 µM (RXF 393) [%] | growth at 10 µM [2] [%] | growth at 10 µM [3] [%] | growth at 10 µM [4] [%] | growth at 10 µM (MOLT-4) [%] | growth at 10 µM (MDA-MB-468) [%] | growth at 10 µM [5] [%] | IC50 (MCF7) [µM] | growth at 10 µM [6] [%] | growth at 10 µM [7] [%] | growth at 10 µM (HL-60(TB)) [%] | IC50 (MDA-MB-231) [µM] | growth at 10 µM (SK-MEL-2) [%] | growth at 10 µM (SW-620) [%] | growth at 10 µM (NCI-H226) [%] | growth at 10 µM (CAKI-1) [%] | growth at 10 µM (NCI-H522) [%] | growth at 10 µM (A498) [%] | growth at 10 µM (COLO 205) [%] | also measured
CC(C)=CCC[C@H](C)c1ccc(C)c2c1OCN(CCCCC(=O)O)C2 | 105 | 102 | 104 | 90.8 | 85.3 | 102 | 87 | 69.7 | > 20 | 88.8 | 104 | 77.5 | > 50 | 84 | 101 | 95.7 | 81 | 44.8 | 99.4 | 110 | growth at 10 µM (SF-268): 100%; growth at 10 µM (HOP-92): 83.7%; growth at 10 µM (Malme-3M): 126%; growth at 10 µM (DU-145): 118%; growth at 10 µM (SR): 105%; growth at 10 µM (U-251): 106%; growth at 10 µM (SK-MEL-5): 92%
CC(C)=CCC[C@H](C)c1ccc(C)c2c1OCN(CCO)C2 | 79 | 52.4 | 105 | 83.7 | 73.5 | 101 | 82.5 | 42.4 | 8.4 | 86.3 | 75.6 | 90.8 | 20.3 | 99.2 | 100 | 91.2 | 91.6 | 78.1 | 47.2 | 119 | growth at 10 µM (HOP-92): 4.21%; growth at 10 µM (Malme-3M): 89.5%; growth at 10 µM (BT-549): 95.8%; growth at 10 µM (U-251): 85.1%; growth at 10 µM (SK-MEL-5): 81.2%
CC(C)=CCC[C@H](C)c1ccc(C)c(CNCCO)c1O | 108 | 79.2 | 88.9 | 87.6 | 88.7 | 87.5 | 81.7 | 54.7 | > 20 | 89.6 | 83.1 | 92.7 | 14.4 | 93 | 100 | 90 | 74.6 | 81.4 | 66.5 | 105 | growth at 10 µM (SF-268): 97.8%; growth at 10 µM (DU-145): 98.3%; growth at 10 µM (SR): 75.7%; growth at 10 µM (U-251): 87.2%; growth at 10 µM (SK-MEL-5): 92.5%
CC(C)=CCC[C@H](C)c1ccc(C)c(CNCCCCC(=O)O)c1O | 93.3 | 121 | 105 | 102 | 103 | 95.1 | 100 | 81.9 | > 20 | 94.1 | 102 | 84.6 | > 50 | 104 | 98.3 | 91.1 | 90.6 | 95.4 | 92.3 | 119 | growth at 10 µM (SF-268): 105%; growth at 10 µM (DU-145): 110%; growth at 10 µM (BT-549): 111%; growth at 10 µM (SR): 85%; growth at 10 µM (U-251): 98.1%; growth at 10 µM (SK-MEL-5): 98.4%
CC(C)=CCC[C@H](C)c1ccc(C)cc1O | 100 | 103 | 119 | 99 | 99 | 102 | 95.7 | 83 | > 20 | 108 | 114 | 85.7 | > 50 | 147 | 114 | 107 | 107 | 101 | 87.8 | 117 | growth at 10 µM (HOP-92): 85%; growth at 10 µM (Malme-3M): 115%; growth at 10 µM (BT-549): 114%; growth at 10 µM (U-251): 103%; growth at 10 µM (SK-MEL-5): 97.5%
COc1ccc(CCNCc2c(C)ccc([C@@H](C)CCC=C(C)C)c2O)cc1OC | 71 | 80.8 | 94.8 | 96.6 | 83.4 | 68.2 | 67.9 | 42.6 | > 20 | 80.4 | 89.6 | 85.6 | > 50 | 99.9 | 84.9 | 78.3 | 58.4 | 75 | 53.4 | 67.9 | growth at 10 µM (SF-268): 90.7%; growth at 10 µM (DU-145): 83.4%; growth at 10 µM (SR): 53.4%; growth at 10 µM (U-251): 76.7%; growth at 10 µM (SK-MEL-5): 78%
CC(C)=CCC[C@H](C)c1ccc(C)c(CO)c1O | 90.7 | 92.3 | 122 | 110 | 97.1 | 91.4 | 93.5 | 76.7 | > 20 | 92.1 | 104 | 95.7 | 22.2 | 102 | 118 | 112 | 112 | 87.1 | 97.4 | 125 | growth at 10 µM (HOP-92): 65.2%; growth at 10 µM (Malme-3M): 110%; growth at 10 µM (BT-549): 91.8%; growth at 10 µM (U-251): 98.8%; growth at 10 µM (SK-MEL-5): 85.1%
CC(C)=CCC[C@H](C)c1ccc(C)c(CNCCCCCO)c1O | 72.9 | 84.6 | 99.4 | 99.4 | 86.8 | 83.1 | 79.8 | 54.9 | 7.6 | 98 | 88.4 | 87.7 | 10.7 | 97.6 | 91.9 | 99.6 | 75.2 | 89.2 | 82.6 | 105 | growth at 10 µM (SF-268): 87.8%; growth at 10 µM (Malme-3M): 106%; growth at 10 µM (DU-145): 108%; growth at 10 µM (BT-549): 108%; growth at 10 µM (SR): 84%; growth at 10 µM (U-251): 82.9%; growth at 10 µM (SK-MEL-5): 84.9%
